From patent US20050011012A1, “Multifunctional antimicrobial dyes” (Regents of the University of California, priority 2003, published 2005)
Like-named read-outs stand apart in the source and are kept apart here.

What was measured:
Staphylococcus aureus = conditions: Orlon treated with 1 mMol/L compound, pH 3, 10^5~10^6 CFU/mL, contact time 6 hrs
Method: (§1) The dyeing of acrylic fabrics follows a traditional exhaustion dyeing procedure (Munn, The dyeing of synthetic-polymer and acetate fibres, England: Dyers Company Publications Trust (1979)). Dye solutions were prepared with the QAS-dyes of the present invention, sodium sulfate (2 g/L), and Triton X-100 (0.05%). The pH of the dyeing bath was adjusted to 3 by buffer solutions containing sulfuric acid, sodium acetate, and acetic acid. The bath ratio was kept at 1:50. The Orlon fabrics were immersed into the dyeing bath at initial dyeing temperatures for a certain period of time, and then fixed at 100° C. for another period of time to elevate the interactions between the fabrics and the QAS-dyes.
(§2) The antimicrobial activities of the treated Orlon fabrics were evaluated against Escherichia coli (E. coli, Gram-negative) and Staphylococcus aureus (S. aureus, Gram-positive) according to AATCC test method 100-1999. In this method, disposable petri dishes containing fabric swatches weighing about 1 g were challenged with 1.0±0.1 mL of bacteria inoculum. After a certain period of contact time, the challenged fabric swatches were transferred to 250 mL containers with 100 mL of sterilized water, and the resultant supernatant was diluted 10^1, 10^2, 10^3, and 10^4 times. Then, 100 μL of each dilution was placed onto nutrient agar and incubated at 37° C. for 18 hours. The same procedure was applied to an untreated Orlon fabric swatch as a control. Finally, viable bacteria colonies on the agar plate were counted, and the amount of bacterial reduction was calculated using Eq. (2): Reduction percentage(%)=(A-B)/A×100%, (2) where A represents the number of bacterial colonies in the control, and B represents the number of bacterial colonies in the treated Orlon fabrics.
(§3) The surface resistivity of the treated fabrics was measured by a portable surface resistivity/resistance meter purchase from Monroe Electronics, Inc (Model 272A). The visual color yields of the dyed fabrics were measured by GretagMacbeth™ Color-Eye® 7000A spectrophotometer. The visual color yields of the fabrics were expressed by K/S values, which were derived from the reflectance measurement. The treated fabric was washed in a Launder-Ometer® according to AATCC Test Method 61-2001 to evaluate the wash durability of the treated fabrics. In this method, one cycle of a Launder-Ometer wash is equivalent to five machine washes using a home laundry machine.

Escherichia coli = conditions: pH 3; for Antimicrobial efficacy of treated fabric, E. coli: Orlon treated with 1 mMol/L compound, 10^5~10^6 CFU/mL; for Reduction percentage of E. coli: Orlon treated with 1 mMol/L dye
Method: as §1, §2, §3

[1] = DSC, 10° C./min, nitrogen
Method: Thermal stability analysis: Thermal analyses of the QAS-dyes shown in FIG. 2B were performed using a differential scanning calorimeter (DSC) (Shimadzu DSC-50) and a thermal gravimetric analyzer (TGA) (Shimadzu TGA-50). The dye samples were heated at 10° C./min. and nitrogen gas was chosen as the atmosphere.

[2] = for Relative hydrolytic stability among mono-QAS substituted dyes: acidic conditions, 100° C.
Method: Hydrolytic stability analysis: The dyes were dissolved in aqueous solutions at a concentration of 0.4-1 mMol/L, and the solutions were adjusted to various pH values by using sulfuric acid, acetic acid, sodium acetate, sodium bicarbonate, and/or sodium carbonate. The solutions were heated to the required temperatures. At different time intervals, solution samples were taken and measured by a HITACHI U-2000 spectrophotometer to obtain the UV-vis adsorption spectra. The results were compared with the spectra of original dye solutions to determine the stability of the dyes.
After hydrolysis, the precipitates formed in the dye solutions were filtered and thoroughly washed with deionized water. The resultant precipitates were recrystallized using acetone for NMR analysis. NMR spectra were recorded on a Varian Inova 400 spectrometer. The residual filtrate was extracted by chloroform, and the aqueous part was dried under vacuum at room temperature and analyzed by NMR.

With CCCC[N+](C)(C)CC(=O)Nc1ccc(NC(=O)C[N+](C)(C)CCCC)c2c1C(=O)c1ccccc1C2=O.[Cl-].[Cl-] [bi-4] as the compound, how does the “Antimicrobial efficacy of treated fabric, S. aureus” value (“Antimicrobial efficacy … S. aureus” below) (Staphylococcus aureus; 0 washes) read?
The value was 87.5%.

What about the “Antimicrobial efficacy … S. aureus” value (Staphylococcus aureus; 5 washes) of the same compound?
Its value is 36.4%.

What about the “Antimicrobial efficacy … S. aureus” value (Staphylococcus aureus; 10 washes) of the same compound?
Its value is 0%.

What about the “Antimicrobial efficacy … S. aureus” value (Staphylococcus aureus; 20 washes) of the same compound?
Its value is 0%.

And the “Antimicrobial efficacy of treated fabric, E. coli” value (from here on “Antimicrobial efficacy … E. coli”) (Escherichia coli; 0 washes, contact time 6 hrs)?
The value was 97.1%.

What about the “Antimicrobial efficacy … E. coli” value (Escherichia coli; 5 washes, contact time 6 hrs) of the same compound?
Its value is 37.5%.

And the “Antimicrobial efficacy … E. coli” value (Escherichia coli; 10 washes, contact time 6 hrs)?
Its value is 0%.

And the “Antimicrobial efficacy … E. coli” value (Escherichia coli; 20 washes, contact time 6 hrs)?
The value was 0%.

Which results are given for CCCCCCCC[N+](C)(C)CC(=O)Nc1ccc(NC(=O)C[N+](C)(C)CCCCCCCC)c2c1C(=O)c1ccccc1C2=O.[Cl-].[Cl-] [bi-8]?
Antimicrobial efficacy of treated fabric, S. aureus (Staphylococcus aureus; 0 washes): 93.9%; Antimicrobial efficacy of treated fabric, S. aureus (Staphylococcus aureus; 5 washes): 50.0%; Antimicrobial efficacy of treated fabric, S. aureus (Staphylococcus aureus; 10 washes): 37.5%; Antimicrobial efficacy of treated fabric, S. aureus (Staphylococcus aureus; 20 washes): 0%; Antimicrobial efficacy of treated fabric, E. coli (Escherichia coli; 0 washes, contact time 6 hrs): 98.6%; Antimicrobial efficacy of treated fabric, E. coli (Escherichia coli; 5 washes, contact time 6 hrs): 50.0%; Antimicrobial efficacy of treated fabric, E. coli (Escherichia coli; 10 washes, contact time 6 hrs): 46.7%; Antimicrobial efficacy of treated fabric, E. coli (Escherichia coli; 20 washes, contact time 6 hrs): 0%

Which “Antimicrobial efficacy … S. aureus” value (Staphylococcus aureus; 0 washes) does the source give for CCCCCCCCCCCC[N+](C)(C)CC(=O)Nc1ccc(NC(=O)C[N+](C)(C)CCCCCCCCCCCC)c2c1C(=O)c1ccccc1C2=O.[Cl-].[Cl-] [bi-12] here?
The value was 99.9%.

What about the “Antimicrobial efficacy … S. aureus” value (Staphylococcus aureus; 5 washes) of the same compound?
The value was 81.8%.

What about the “Antimicrobial efficacy … S. aureus” value (Staphylococcus aureus; 10 washes) of the same compound?
Its value is 45.5%.

What about the “Antimicrobial efficacy … S. aureus” value (Staphylococcus aureus; 20 washes) of the same compound?
The value was 0%.

What about the “Antimicrobial efficacy … E. coli” value (Escherichia coli; 0 washes, contact time 6 hrs) of the same compound?
Its value is 99.9%.

What about the “Antimicrobial efficacy … E. coli” value (Escherichia coli; 5 washes, contact time 6 hrs) of the same compound?
The value was 99.3%.

What about the “Antimicrobial efficacy … E. coli” value (Escherichia coli; 10 washes, contact time 6 hrs) of the same compound?
The value was 60.0%.

And the “Antimicrobial efficacy … E. coli” value (Escherichia coli; 20 washes, contact time 6 hrs)?
Its value is 0%.

What about the “Reduction percentage of E. coli” value (Escherichia coli; E. coli 10^5~10^6 CFU/mL, contact time 3 hrs) of the same compound?
The value was 93.3%.

What about the “Reduction percentage of E. coli” value (Escherichia coli; E. coli 10^5~10^6 CFU/mL, contact time 6 hrs) of the same compound?
Its value is 99.9%.

What about the “Reduction percentage of E. coli” value (Escherichia coli; E. coli 10^5~10^6 CFU/mL, contact time 9 hrs) of the same compound?
The value was 93.3%.

And the “Reduction percentage of E. coli” value (Escherichia coli; E. coli 10^5~10^6 CFU/mL, contact time 12 hrs)?
Its value is 66.7%.

What about the “Reduction percentage of E. coli” value (Escherichia coli; E. coli 10^6~10^7 CFU/mL, contact time 3 hrs) of the same compound?
Its value is 92.5%.

And the “Reduction percentage of E. coli” value (Escherichia coli; E. coli 10^6~10^7 CFU/mL, contact time 6 hrs)?
The value was 95.8%.

And the “Reduction percentage of E. coli” value (Escherichia coli; E. coli 10^6~10^7 CFU/mL, contact time 9 hrs)?
Its value is 83.3%.

What about the “Reduction percentage of E. coli” value (Escherichia coli; E. coli 10^6~10^7 CFU/mL, contact time 12 hrs) of the same compound?
The value was 50%.

And the “Reduction percentage of E. coli” value (Escherichia coli; E. coli 10^7~10^8 CFU/mL, contact time 3 hrs)?
The value was 86.7%.

And the “Reduction percentage of E. coli” value (Escherichia coli; E. coli 10^7~10^8 CFU/mL, contact time 6 hrs)?
Its value is 0%.

What about the “Reduction percentage of E. coli” value (Escherichia coli; E. coli 10^7~10^8 CFU/mL, contact time 9 hrs) of the same compound?
Its value is 0%.

And the “Reduction percentage of E. coli” value (Escherichia coli; E. coli 10^7~10^8 CFU/mL, contact time 12 hrs)?
Its value is 0%.

What does the source list for CCCC[N+](C)(C)CC(=O)Nc1cccc2c1C(=O)c1ccccc1C2=O.[Cl-] [m-4]?
Antimicrobial efficacy of treated fabric, S. aureus (Staphylococcus aureus; 0 washes): 86.4%; Antimicrobial efficacy of treated fabric, S. aureus (Staphylococcus aureus; 5 washes): 50.0%; Antimicrobial efficacy of treated fabric, S. aureus (Staphylococcus aureus; 10 washes): 0%; Antimicrobial efficacy of treated fabric, S. aureus (Staphylococcus aureus; 20 washes): 0%; Antimicrobial efficacy of treated fabric, E. coli (Escherichia coli; 0 washes, contact time 6 hrs): 95.7%; Antimicrobial efficacy of treated fabric, E. coli (Escherichia coli; 5 washes, contact time 6 hrs): 44.0%; Antimicrobial efficacy of treated fabric, E. coli (Escherichia coli; 10 washes, contact time 6 hrs): 0%; Antimicrobial efficacy of treated fabric, E. coli (Escherichia coli; 20 washes, contact time 6 hrs): 0%; Temperature up to which no obvious changes are observed (dyes stable below) [1]: up to 190 °C; Time the dye solution was stable (almost unchanged visible spectra) ([2]; 0.4 mMol/L, pH 5, 100° C.): about six

For CCCCCCCC[N+](C)(C)CC(=O)Nc1cccc2c1C(=O)c1ccccc1C2=O.[Cl-] [m-8], which “Antimicrobial efficacy … S. aureus” value (Staphylococcus aureus; 0 washes) is on record?
Its value is 92.4%.

And the “Antimicrobial efficacy … S. aureus” value (Staphylococcus aureus; 5 washes)?
The value was 37.5%.

What about the “Antimicrobial efficacy … S. aureus” value (Staphylococcus aureus; 10 washes) of the same compound?
Its value is 0%.

And the “Antimicrobial efficacy … S. aureus” value (Staphylococcus aureus; 20 washes)?
The value was 0%.

And the “Antimicrobial efficacy … E. coli” value (Escherichia coli; 0 washes, contact time 6 hrs)?
The value was 98.6%.

And the “Antimicrobial efficacy … E. coli” value (Escherichia coli; 5 washes, contact time 6 hrs)?
The value was 44.0%.

What about the “Antimicrobial efficacy … E. coli” value (Escherichia coli; 10 washes, contact time 6 hrs) of the same compound?
Its value is 0%.

And the “Antimicrobial efficacy … E. coli” value (Escherichia coli; 20 washes, contact time 6 hrs)?
The value was 0%.

And the “Temperature up to which no obvious changes are observed (dyes stable below)” value [1]?
The value was “up to 190 °C”.

What about the “Relative hydrolytic stability among mono-QAS substituted dyes” value [2] of the same compound?
The value was “lower stability”.

What does the source list for CCCCCCCCCCCC[N+](C)(C)CC(=O)Nc1cccc2c1C(=O)c1ccccc1C2=O.[Cl-] [m-12]?
Antimicrobial efficacy of treated fabric, S. aureus (Staphylococcus aureus; 0 washes): 99.9%; Antimicrobial efficacy of treated fabric, S. aureus (Staphylococcus aureus; 5 washes): 75.0%; Antimicrobial efficacy of treated fabric, S. aureus (Staphylococcus aureus; 10 washes): 0%; Antimicrobial efficacy of treated fabric, S. aureus (Staphylococcus aureus; 20 washes): 0%; Antimicrobial efficacy of treated fabric, E. coli (Escherichia coli; 0 washes, contact time 6 hrs): 99.9%; Antimicrobial efficacy of treated fabric, E. coli (Escherichia coli; 5 washes, contact time 6 hrs): 81.3%; Antimicrobial efficacy of treated fabric, E. coli (Escherichia coli; 10 washes, contact time 6 hrs): 0%; Antimicrobial efficacy of treated fabric, E. coli (Escherichia coli; 20 washes, contact time 6 hrs): 0%; Temperature up to which no obvious changes are observed (dyes stable below) [1]: up to 190 °C; Relative hydrolytic stability among mono-QAS substituted dyes [2]: lowest stability
